Test results: US11426397B2, “Piperidinyl- and piperazinyl-substituted heteroaromatic carboxamides as modulators of GPR6” (TAKEDA PHARMACEUTICAL COMPANY LIMITED, priority 2017, dated 2022)

These molecules were tested against T1, GPR6 receptor expressed in CHO-K1 cells (Homo sapiens, UniProt P46095) (assay: In vitro inhibition of cAMP (EC50), cell-based HTRF cAMP assay). Settings: inhibition of constitutive cAMP activity of GPR6 in CHO-K1 cells.
T1 construct: expressed in transfected cells
Procedure, shortened: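 Tetracycline-inducible CHO-K1 line, GPR6 expression induced 20 h with 2 μg/mL doxycycline. Compounds incubated 45 min at 37 °C in Ringer's buffer (pH 7.4) with 0.5% fatty acid free BSA and 300 μM IBMX. Constitutive cAMP read by Lance HTRF; EC50 from four-parameter logistic fit.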

T1 sequence (P46095 whole entry): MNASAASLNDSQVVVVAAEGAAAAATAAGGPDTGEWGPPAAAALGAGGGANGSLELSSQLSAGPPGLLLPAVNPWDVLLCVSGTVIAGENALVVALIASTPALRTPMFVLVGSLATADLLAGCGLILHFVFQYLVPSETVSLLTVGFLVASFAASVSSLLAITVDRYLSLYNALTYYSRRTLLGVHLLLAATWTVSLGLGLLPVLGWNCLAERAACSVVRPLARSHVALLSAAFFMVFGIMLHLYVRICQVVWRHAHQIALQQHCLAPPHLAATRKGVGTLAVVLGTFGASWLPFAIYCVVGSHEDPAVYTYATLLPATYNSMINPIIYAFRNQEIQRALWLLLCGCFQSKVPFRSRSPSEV

Structure (SMILES) | pEC50, in vitro inhibition of cAMP
Cc1nc(C(=O)Nc2cc(C#N)ccc2N2CCC(Oc3ccc(F)cc3F)CC2)c(C)o1 [Example 110, N-(5-cyano-2-(4-(2,4-difluorophenoxy)piperidin-1-yl)phenyl)-2,5-dimethyloxazole-4-carboxamide] | 6.3
COc1nn(C)cc1C(=O)Nc1cc(C#N)cnc1N1CCN(Cc2ccc(Cl)cc2F)CC1 [Example 172, N-(2-(4-(4-chloro-2-fluorobenzyl)piperazin-1-yl)-5-cyanopyridin-3-yl)-3-methoxy-1-methyl-1H-pyrazole-4-carboxamide] | 7.1
COc1cc(C(F)(F)F)ccc1C(=O)Nc1cc(C#N)ccc1N1CCC(Oc2ccc(F)cc2F)CC1 [Example 194, N-(5-cyano-2-(4-(2,4-difluorophenoxy)piperidin-1-yl)phenyl)-2-methoxy-4-(trifluoromethyl)benzamide] | 6.3
Cc1ccc(C(=O)Nc2cc(C#N)ccc2N2CCC(Oc3ccc(F)cc3F)CC2)c(=O)n1C [Example 79, N-(5-cyano-2-(4-(2,4-difluorophenoxy)piperidin-1-yl)phenyl)-1,6-dimethyl-2-oxo-1,2-dihydropyridine-3-carboxamide] | 6.8
Cc1cc(C(=O)Nc2cc(C#N)ccc2N2CCC(Oc3ccc(F)cc3F)CC2)c(=O)n(C)c1C [Example 184, N-(5-cyano-2-(4-(2,4-difluorophenoxy)piperidin-1-yl)phenyl)-1,5,6-trimethyl-2-oxo-1,2-dihydropyridine-3-carboxamide] | 6.8
COc1nn(C)cc1C(=O)Nc1cc(C#N)ccc1N1CCC(S(=O)(=O)c2cccc(F)c2)CC1 [Example 97, N-(5-cyano-2-(4-((3-fluorphenyl)sulfonyl)piperidin-1-yl)phenyl)-3-methoxy-1-methyl-1H-pyrazole-4-carboxamide] | 6.4
COc1ncccc1C(=O)Nc1cnc(C#N)cc1N1CCC(Oc2ccc(F)cc2F)CC1 [Example 270, N-(6-cyano-4-(4-(2,4-difluorophenoxy)piperidin-1-yl)pyridin-3-yl)-2-methoxynicotinamide] | 6.9
COc1ncccc1C(=O)Nc1cnc(C(N)=O)cc1N1CCC(Oc2ccc(F)cc2F)CC1 [Example 269, 4-(4-(2,4-difluorophenoxy)piperidin-1-yl)-5-(2-methoxynicotinamido)picolinamide] | 6.9
COc1ccc(OC2CCN(c3ccc(S(C)(=O)=O)cc3NC(=O)c3cn(CF)nc3OC)CC2)c(F)c1 [Example 2, N-(2-(4-(2-fluoro-4-methoxyphenoxy)piperidin-1-yl)-5-(methylsulfonyl)phenyl)-1-(fluoromethyl)-3-methoxy-1H-pyrazole-4-carboxamide] | 7.0
COc1ncccc1C(=O)Nc1cc(C#N)ccc1N1CCN(Cc2ccc(F)cc2)CC1 [Example 91, N-(5-cyano-2-(4-(4-fluorobenzyl)piperazin-1-yl)phenyl)-2-methoxynicotinamide] | 7.1
COc1ncccc1C(=O)Nc1cc(C#N)cnc1N1CCC(Oc2ccc(F)cc2F)CC1 [Example 63, N-(5-cyano-2-(4-(2,4-difluorophenoxy)piperidin-1-yl)pyridin-3-yl)-2-methoxynicotinamide] | 7.1
COc1cn(-c2ccccc2)nc1C(=O)Nc1cc(C#N)ccc1N1CCC(Oc2ccc(F)cc2F)CC1 [Example 219, N-(5-cyano-2-(4-(2,4-difluorophenoxy)piperidin-1-yl)phenyl)-4-methoxy-1-phenyl-1H-pyrazole-3-carboxamide] | 6.3
COc1nn(C)cc1C(=O)Nc1cc(C#N)cnc1N1CCC(Oc2ccc(F)cc2F)CC1 [Example 60, N-(5-cyano-2-(4-(2,4-difluorophenoxy)piperidin-1-yl)pyridin-3-yl)-3-methoxy-1-methyl-1H-pyrazole-4-carboxamide] | 7.3
COc1c(C(=O)Nc2cc(C#N)ccc2N2CCC(Oc3ccc(F)cc3F)CC2)nnn1Cc1ccccc1Cl [Example 221, 1-(2-chlorobenzyl)-N-(5-cyano-2-(4-(2,4-difluorophenoxy)piperidin-1-yl)phenyl)-5-methoxy-1H-1,2,3-triazole-4-carboxamide] | <4.5
COc1cc(N(C)C)ccc1C(=O)Nc1cc(C#N)ccc1N1CCC(Oc2ccc(F)cc2F)CC1 [Example 188, N-(5-cyano-2-(4-(2,4-difluorophenoxy)piperidin-1-yl)phenyl)-4-(dimethylamino)-2-methoxybenzamide] | 6.4
COc1c(F)cc(F)cc1C(=O)Nc1cc(C#N)ccc1N1CCC(Oc2ccc(F)cc2F)CC1 [Example 207, N-(5-cyano-2-(4-(2,4-difluorophenoxy)piperidin-1-yl)phenyl)-3,5-difluoro-2-methoxybenzamide] | 6.8
Cc1csc2ncc(C(=O)Nc3cc(C#N)ccc3N3CCC(Oc4ccc(F)cc4F)CC3)c(=O)n12 [Example 218, N-(5-cyano-2-(4-(2,4-difluorophenoxy)piperidin-1-yl)phenyl)-3-methyl-5-oxo-5H-thiazolo[3,2-a]pyrimidine-6-carboxamide] | 6.8
COc1nn(C)cc1C(=O)Nc1cnc(C)cc1N1CCC(S(=O)(=O)c2ccc(F)cc2F)CC1 [Example 99, N-(4-(4-((2,4-difluorophenyl)sulfonyl)piperidin-1-yl)-6-methylpyridin-3-yl)-3-methoxy-1-methyl-1H-pyrazole-4-carboxamide] | 6.1
Cn1c(-c2ccccc2)ncc(C(=O)Nc2cc(C#N)ccc2N2CCC(Oc3ccc(F)cc3F)CC2)c1=O [Example 183, N-(5-cyano-2-(4-(2,4-difluorophenoxy)piperidin-1-yl)phenyl)-1-methyl-6-oxo-2-phenyl-1,6-dihydropyrimidine-5-carboxamide] | 5.9
